Data from paper PMC10572602, “Molecular Mechanism of STIL Coiled-Coil Domain Oligomerization” (International Journal of Molecular Sciences, 2023).
Where two headings read alike, the source gives them in different places.

Assays:
[1] = tested on: STIL CCD peptide; experiment: AUC sedimentation velocity (SV), oligomeric state; format: physicochemical; details: for oligomeric state (average number of monomers in the oligomer): continuous c(s), 25 mM sodium phosphate pH 6.8, NaCl
Experimental: Previously, we and others have shown by size-exclusion chromatography and multi-angle light scattering that the oligomerization of a STIL CCD peptide is concentration dependent. However, these studies were qualitative and the interaction was not quantified. To quantify the oligomerisation of the STIL CCD peptide, analytical ultracentrifugation (AUC) sedimentation velocity (SV) and sedimentation equilibrium (SE) experiments were performed (Figure 2A, Table 1 and Figures S4–S9, S18 and S19). AUC-SV experiments were conducted at several concentrations to explore how the oligomeric state changed with concentration in the low-to-high µM concentration range, and also to estimate the dissociation constants of the oligomerization of the STIL CCD peptide.
(§1) Analytical ultracentrifugation (AUC) experiments were carried out using a Beckman Optima XL-A or XL-I analytical ultracentrifuge. Measurements were performed at 20 °C unless otherwise stated, using an An-50 or An-60 rotor, in Sodium Phosphate Buffer pH 6.8 (25 mM Na2PO4 with addition of 137 mM NaCl, pH measured using Jenway (TM) 3510 benchtop and adjusted using 1M HCl and 1M NaOH solutions). The partial specific volume ( υ¯ ) for each peptide were calculated in Sedfit using values from Cohn and Edsall. The buffer densities and viscosities were calculated using UltraScan III [54].
Sedimentation velocity (SV) experiments were performed in EPON 2-channel centerpieces with quartz windows or aluminium centrepieces with sapphire windows. The samples were centrifuged at 50 or 60 krpm where stated, with absorbance measurements taken from a radial range of 5.7–7.3 cm. 120 scans were taken at 5 min intervals, the data were fit in Sedfit to a continuous c(s) distribution model at a 95% confidence level. The frictional ration and baseline were floated, and Time-invariant and Radial-invariant noise were fit. Initially data were fit between a range of Svedberg ratio of 0–15, but this was reduced to 0–3 for all data as there were no larger species. The residuals for each individual fit are shown in Figures S14–S17 as a bitmap in which the color indicates the difference between the model fit and the raw data over the radial range to which the data were fitted. The scans are in vertical chronological order.

[2] = tested on: STIL CCD peptide; experiment: AUC sedimentation equilibrium (SE), oligomeric state; format: physicochemical; details: absorbance 225 nm, 95% confidence limits; for AUC oligomeric state, SE: starting concentrations 5, 10, 20 µM, single ideal species fit, 20 °C, 25 mM phosphate pH 6.8; for mass, single species model, SE: starting concentrations 20, 10 and 5 µM
Experimental: (§2) To quantify the dissociation constants of the possible monomer-dimer and dimer-tetramer transitions, we used fluorescence-based binding measurements. Using micro-scale thermophoresis, fluorescence measurements were taken at increasing concentrations of WT CCD peptide in a fixed background of 5 µM fluorophore-labelled peptide. […] Fitting the fluorescence data to the Hill equation provided a dissociation constant of 8 ± 2 µM and a cooperativity of 1.2 ± 0.3 (Figure 2B, Table S4). We interpret this as being for the monomer-dimer transition, and that the fluorescence measurements are insensitive to the higher-order oligomerization. […] To probe the possible dimer-tetramer transition, we turned to AUC-SE measurements with starting concentrations of 5, 10, and 20 µM of STIL WT CCD peptide (Figures S18 and S19). The equilibrated data were fitted first to a model for a single ideal species, which provided a species 2.9 × monomer mass (Table 1). […] It should be noted that the dimerization constant of the WT peptide was measured in the presence of 5% DMSO and using a fluorophore-labeled peptide, while the tetramerization constant was measured without DMSO and unlabeled peptides. The addition of the label and the presence of the DMSO, which was unavoidable for making the labeled peptide soluble, may have affected the measured dimerization constant. Thus, we avoid directly comparing the values obtained by the two methods.
as §1
AUC sedimentation equilibrium (SE) experiments were run at multiple concentrations in a 6-Channel Epon charcoal-filled centerpiece. The samples were centrifuged at a range of speeds between 22–48 krpm. Absorbance scans across the radial range were recorded twice at each speed to ensure equilibration. Data were fitted to single, ideal species models or monomer-dimer equilibrium using Sedphat. In total, 95% confidence limits were obtained via Monte-Carlo analysis of the obtained fits. The quality of the fit was evaluated using the χ^2 parameter to observe which model best fit the data. Both fits of the data, where performed in Figures S18–S23 with their corresponding fit information.

[3] = format: physicochemical; details: for Tm: CD 222 nm, Boltzmann fit
Description: (§3) Next, we used circular dichroism (CD) spectroscopy to probe the secondary structures of these WT CCD peptide assemblies. […] The spectra all had minima at 208 and 222 nm indicative of largely α-helical structures. From the high-concentration spectra we estimated ≈47% helix. To compare how the stabilities of these helical assemblies changed with concentration, we followed the changes in MRE222 with temperature over the same concentration range (Figure 2D, Table S1). Sigmoidal curves indicative of cooperative unfolding were apparent at all concentrations, indicating a cooperatively folded, oligomeric species. […] The temperature-dependent CD measurements were performed to determine the oligomerization-dependent thermal stability of the CCD. […] CD spectra of the peptides were recorded using a J-810 spectropolarimeter (Jasco) in a 0.1 cm and 1 cm quartz cuvette for far-UV CD spectroscopy, in a spectral range of 190 nm to 260 nm. The buffer used in the CD measurements was 25 mM sodium phosphate buffer pH = 6.8 with ionic strength of 154 mM (adjected by NaCl). The thermal melting of all STIL CCD peptides were measured as described. The graphs were fitted to Boltzmann equation in order to generate the Tm. Normalization to mean residue ellipticity was performed. The 100% helicity was calculated (with normalization to the length of the peptide and the condition of the measurement) as MRE × 10^−3 of −38 (Deg × cm^2 × dmol^−1 × res^−1).

[4] = tested on: STIL CCD peptide; experiment: AUC-SE dimer-tetramer model, tetramerization KD; format: binding; details: any experimental conditions; KDs could not be measured
Experimental: as §2
as §1, with “[54]. […]” for “[54].”

[5] = CD spectroscopy, helicity; format: physicochemical; details: CD at 50 µM, 5 °C, 25 mM sodium phosphate pH 6.8, 154 mM NaCl; for % Helicity: from MRE222 (100% = −38)
Description: as §3

[6] = 10 µM, AUC-SV, 60 krpm, 20 °C, pH 6.8
[7] = 10 µM, AUC-SV, 60 krpm, 20 °C, pH 6.8, 95% confidence level
[8] = 10 µM, AUC-SV, 60 krpm, 20 °C, absorbance, 95% confidence level
[9] = 100 µM, AUC-SV, 60 krpm, 20 °C, pH 6.8
[10] = 100 µM, AUC-SV, 60 krpm, 20 °C, pH 6.8, 95% confidence level
[11] = 100 µM, AUC-SV, 60 krpm, pH 6.8
[12] = 50 µM, 25 mM sodium phosphate pH 6.8, 154 mM NaCl
[13] = 10 µM in legend of Figure S17 (second fit), 60 krpm

Row | Oligomeric State (at 10 µM) ([1]; 10 µM) | sw [1, 6] [S] | mw (solution mass from c(s) fit) [1, 7] [Da] | f/f0 ([1]; 10 µM, AUC-SV, 60 krpm, pH 6.8) | sw(20,w) ([1]; 10 µM, AUC-SV, 60 krpm, pH 6.8) [S] | oligomeric state (average number of monomers in the oligomer) [1, 8] [× monomer mass] | sw [1, 9] [S] | mw (solution mass from c(s) fit) [1, 10] [Da] | f/f0 [1, 11] | sw(20,w) [1, 11] [S] | mass, single species model, SE [2] [Da] | Tm [3, 12] [°C] | MRE222 nm [5] [kdeg cm^2 dmol^−1 res^−1] | % Helicity [5] [%] | Substance | AUC oligomeric state, SE [2] | dissociation of tetramer (in words) [4] | other results
1 | Tetramer | 1.484 | 13538 | 1.250 | 1.531 | 3.56 | 1.573 | 15867 | 1.323 | 1.622 | 13373 ± 200 | >95 | −25.3 | 67 | L SPDAYRF LTELDRQ LRLLQAQ IQRLLEA QSL-NH2 [STIL CCD718–749 Q729L, STIL CCD peptide with stabilising Q729L mutation; PDB 8oyl] | 3.47 ± 0.05 (5, 10, 20 µM) × monomer mass | could not be dissociated under any experimental conditions | oligomeric state (average number of monomers in the oligomer) ([1]; 100 µM, AUC-SV, 60 krpm, 20 °C, 95% confidence level, listed as STIL-Q729L): 4.1 × monomer mass
2 | Tetramer | 1.452 | 16229 | 1.411 | 1.499 | 4.22 |  |  |  |  | 12446 ± 129 | >95 | −30.7 | 81 | L SPDLYRF LTELDRQ LRLLQAQ IQRLLEA QSL-NH2 [STIL CCD718–749 A722L Q729L, STIL CCD peptide, double mutant of A722L and Q729L] | 3.24 ± 0.03 (5, 10, 20 µM) × monomer mass | could not be dissociated under any experimental conditions | f/f0 [1, 13]: 1.390; sw [1, 13]: 1.483 S; sw(20,w) [1, 13]: 1.530 S; mw (solution mass from c(s) fit) ([1]; 10 µM in legend of Figure S17 (second fit), 60 krpm, 95% confidence level): 16134 Da; oligomeric state (multiple of monomer mass) ([1]; 10 µM in legend of Figure S17 (second fit), AUC-SV, 60 krpm, 95% confidence level): 4.2 × monomer mass; oligomeric state (average number of monomers in the oligomer) ([1]; 10 µM, AUC-SV, 60 krpm, 20 °C, absorbance, 95% confidence level, listed as STIL-A722L-Q729L): 4.2 × monomer mass
3 | Tetramer | 1.384 | 15133 | 1.458 | 1.428 | 3.92 | 1.483 | 15385 | 1.403 | 1.514 | 13541 ± 94 | >70 | −24.9 | 66 | L SPDLYRF LTEQDRQ LRLLQAQ IQRLLEA QSL-NH2 [STIL CCD718–749 A722L, STIL CCD peptide with A722L mutation] | 3.51 ± 0.02 (5, 10, 20 µM) × monomer mass | could not be dissociated under any experimental conditions | oligomeric state (average number of monomers in the oligomer) ([1]; 100 µM, AUC-SV, 60 krpm, 20 °C, 95% confidence level, listed as STIL-A722L): 4.0 × monomer mass; Tm ([3]; 3 µM, sodium phosphate pH 6.8): 48.0±0.7 °C; Tm ([3]; 5 µM, sodium phosphate pH 6.8): 52.9±0.9 °C; Tm ([3]; 6 µM, sodium phosphate pH 6.8): 53.6±0.6 °C; Tm ([3]; 10 µM, sodium phosphate pH 6.8): 59.1±0.8 °C; Tm ([3]; 15 µM, sodium phosphate pH 6.8): 63±1 °C; Tm ([3]; 20 µM, sodium phosphate pH 6.8): 68±2 °C; Tm ([3]; 50 µM, 25 mM sodium phosphate pH 6.8, 154 mM NaCl, listed as A722L): over 70 °C; thermal denaturation (in words) ([3]; 50 µM, CD, 25 mM sodium phosphate pH 6.8, 154 mM NaCl): partially denatured; concentration dependence of Tm / thermal stability (in words) ([3]; pH 6.8): the thermal stability of A722L increased with peptide concentration
